Data: BindingDB's records for doi:10.7270/Q2N8786X (Vanderbilt Screening Center For Gpcrs, Ion Channels and …, 2009)

Target: T1, Muscarinic acetylcholine receptor M5 (Homo sapiens, UniProt P08912)
T1 sequence (P08912 whole entry): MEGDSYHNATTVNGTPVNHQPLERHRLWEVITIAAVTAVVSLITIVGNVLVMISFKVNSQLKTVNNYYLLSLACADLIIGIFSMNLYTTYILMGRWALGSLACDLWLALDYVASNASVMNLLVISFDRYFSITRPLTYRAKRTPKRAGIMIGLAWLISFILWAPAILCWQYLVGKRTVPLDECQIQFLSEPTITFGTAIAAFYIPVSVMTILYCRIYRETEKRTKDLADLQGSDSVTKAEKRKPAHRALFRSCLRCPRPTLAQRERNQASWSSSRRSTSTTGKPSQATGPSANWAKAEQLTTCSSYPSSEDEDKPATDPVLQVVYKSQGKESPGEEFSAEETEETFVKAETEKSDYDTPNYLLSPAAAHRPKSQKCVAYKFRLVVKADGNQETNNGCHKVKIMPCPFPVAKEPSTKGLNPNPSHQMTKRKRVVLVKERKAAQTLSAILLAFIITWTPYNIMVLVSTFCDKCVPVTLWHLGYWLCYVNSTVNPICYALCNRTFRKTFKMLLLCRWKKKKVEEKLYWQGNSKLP
Experiment: binding competition at muscarinic M5 – biochemical, [3H]N-methylscopolamine (AID 2192)
Settings: inactive by the depositor's call

`COc1ccc(CN2C(=O)C(=O)c3cc(OC(F)(F)F)ccc32)cc1` [VU0238429] showed a Ki of 1.16 µM.
